Source: ChEMBL document CHEMBL1201862, “PubChem BioAssay data set” (2004)
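48-hour exposure; five concentrations; linearly interpolated endpoints. Here, GI50 denotes the concentration required for 50% inhibition of growth.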 Calls of active or inactive are those of the source. No stated cut-off is given here; in the data, active = GI50 up to about 1.1 µM and inactive = higher.

Experiments:
Assay in all cases: inhibition of tumour cell growth, NCI panel, 48 h
[1] = system: UACC-257
[2] = system: Hs-578T
[3] = system: HOP-92
[4] = system: MDA-MB-231
[5] = system: NCI-H460
[6] = system: SK-MEL-28
[7] = system: T47D
[8] = system: SK-MEL-5
[9] = system: SF-295
[10] = system: K562
[11] = system: NCI-H226
[12] = system: OVCAR-4
[13] = system: NCI-H23
[14] = system: SNB-75
[15] = system: EKVX
[16] = system: Malme-3M
[17] = system: SF-268
[18] = system: SK-OV-3
[19] = system: OVCAR-8
[20] = system: HCC 2998

Measured: GI50

NCCSc1nc(-c2ccccc2)c(-c2ccccc2)o1
inactive: [1] 41.2 µM | [2] > 100 µM | [3] > 100 µM | [4] > 100 µM | [5] 65.9 µM | [6] > 100 µM | [7] 25.2 µM | [8] > 100 µM | [9] > 100 µM | [10] > 100 µM | [11] > 100 µM | [12] 46.7 µM | [13] 17.7 µM | [14] 21 µM | [15] > 100 µM | [16] > 100 µM | [17] > 100 µM | [18] 73.3 µM | [19] > 100 µM

COc1cc(C2OC[C@@H]3C(=O)OC[C@H]23)cc(O)c1OC (some centres undefined)
inactive: [1] > 100 µM | [2] > 100 µM | [3] > 100 µM | [4] > 100 µM | [5] > 100 µM | [7] > 100 µM | [8] > 100 µM | [9] > 100 µM | [10] > 100 µM | [20] > 100 µM | [11] > 100 µM | [12] > 100 µM | [13] > 100 µM | [14] > 100 µM | [15] > 100 µM | [17] > 100 µM | [18] > 100 µM | [19] > 100 µM

C1CSCCCSCCSCCCSC1
inactive: [1] > 100 µM | [2] > 100 µM | [3] > 100 µM | [4] > 100 µM | [5] > 100 µM | [6] > 100 µM | [7] > 100 µM | [8] > 100 µM | [9] > 100 µM | [10] > 100 µM | [20] > 100 µM | [11] > 100 µM | [12] > 100 µM | [13] > 100 µM | [14] > 100 µM | [15] > 100 µM | [17] > 100 µM | [18] > 100 µM | [19] > 100 µM

Fc1cc(C2=Nn3c(COc4ccccc4Cl)nnc3S/C2=C\c2ccc(Cl)cc2)c(Cl)cc1Cl
inactive: [1] 21.8 µM | [2] 11.8 µM | [3] 1.36 µM | [4] 3.72 µM | [5] 3.38 µM | [6] 3.54 µM | [7] 13.6 µM | [8] 3.96 µM | [9] 4.28 µM | [10] 3.77 µM | [20] 3.6 µM | [11] 20.6 µM | [12] 9.84 µM | [13] 1.96 µM | [15] 10.1 µM | [17] 2.83 µM | [18] 19.3 µM | [19] 6.03 µM

COCC1OCCN1C (centres undefined)
inactive: [1] > 100 µM | [2] > 100 µM | [3] > 100 µM | [4] > 100 µM | [5] > 100 µM | [7] > 100 µM | [8] > 100 µM | [9] > 100 µM | [10] > 100 µM | [11] > 100 µM | [12] > 100 µM | [13] > 100 µM | [14] > 100 µM | [15] > 100 µM | [16] > 100 µM | [17] > 100 µM | [18] > 100 µM | [19] > 100 µM

CCOC(=O)Nc1c(C#N)[n+]([O-])c2cc(Cl)c(Cl)cc2[n+]1[O-]
inactive: [1] 16.5 µM | [2] 39.5 µM | [3] 5.4 µM | [4] 15.9 µM | [5] 13.7 µM | [6] 14.6 µM | [7] 13.5 µM | [8] 10.5 µM | [9] 14.6 µM | [10] 16.3 µM | [11] 15.7 µM | [12] 15.3 µM | [13] 19.7 µM | [14] 15.4 µM | [16] 15.2 µM | [17] 15.3 µM | [18] 24.2 µM | [19] 13.4 µM

CCOC(=O)/C(C#N)=C/c1ccc(CO)o1
inactive: [1] > 100 µM | [2] > 100 µM | [4] > 100 µM | [5] > 100 µM | [6] > 100 µM | [7] > 100 µM | [8] > 100 µM | [9] > 100 µM | [10] > 100 µM | [20] > 100 µM | [11] > 100 µM | [12] > 100 µM | [13] > 100 µM | [14] > 100 µM | [15] > 100 µM | [16] > 100 µM | [17] > 100 µM | [18] > 100 µM | [19] > 100 µM

O=[N+]([O-])c1cc2c(cc1/C=N/n1c(CO)nc3ccccc31)OCO2
inactive: [1] > 100 µM | [2] > 100 µM | [3] > 100 µM | [4] > 100 µM | [5] > 100 µM | [6] > 100 µM | [7] > 100 µM | [8] > 100 µM | [9] > 100 µM | [10] > 100 µM | [11] > 100 µM | [12] > 100 µM | [13] > 100 µM | [14] > 100 µM | [15] > 100 µM | [16] > 100 µM | [17] > 100 µM | [18] > 100 µM | [19] > 100 µM

O=Cc1ccc(OC[C@H]2COC(=O)N2)cc1
inactive: [1] > 100 µM | [2] > 100 µM | [4] > 100 µM | [5] > 100 µM | [6] > 100 µM | [7] > 100 µM | [8] > 100 µM | [9] > 100 µM | [10] > 100 µM | [20] 56.5 µM | [11] > 100 µM | [12] > 100 µM | [13] > 100 µM | [14] > 100 µM | [15] > 100 µM | [16] > 100 µM | [17] > 100 µM | [18] > 100 µM | [19] > 100 µM

O=C(Nc1ccc(Cl)cc1Cl)C1C(=O)OC2(CCCCC2)OC1=O
inactive: [1] 12.1 µM | [2] 10.8 µM | [3] 6.82 µM | [4] 14.1 µM | [5] 8.99 µM | [6] 5.77 µM | [7] 12.5 µM | [8] 2.17 µM | [9] 2.92 µM | [10] 4.72 µM | [20] 13 µM | [11] 12.6 µM | [12] 9.18 µM | [13] 4.4 µM | [14] 10.4 µM | [15] 11.9 µM | [17] 14.6 µM | [18] 10.6 µM | [19] 5.7 µM

NS(=O)(=O)c1nnc(NC(=O)/C=C/C(=O)O)s1
inactive: [1] > 100 µM | [2] > 100 µM | [3] > 100 µM | [4] > 100 µM | [5] > 100 µM | [6] > 100 µM | [7] > 100 µM | [8] > 100 µM | [9] > 100 µM | [10] > 100 µM | [20] > 100 µM | [12] > 100 µM | [13] > 100 µM | [15] > 100 µM | [16] > 100 µM | [17] > 100 µM | [18] > 100 µM | [19] > 100 µM
